The text below walks through data of patent US6784184B2, “5-(arylsulfonyl)-,5-(arylsulfinyl), and 5-(arylsulfanyl)-thiazolidine-2,4-diones useful for inhibition of farnesyl-protein transferase” (Wyeth Holdings Corporation, priority 2001, dated 2004).

Experiment [1] concerns the target FPTase (K-Ras substrate) (UniProt P29702+P49355). The experiment can be described thus: in vitro FTase Inhibition Assay, K-Ras as substrate for farnesylation. It is filed as biochemical. Conditions: K-Ras used as substrate for farnesylation. The protocol: (§1) The ability of the compounds of this invention to inhibit FPTase was evaluated in the standard pharmacological in vitro test procedures described below.
(§2) Methods—1. […] 2. Solution #1 is added to FPTase reaction in a volume of […]. 3. Standard reaction mix, […], contains 50 mM Tris (7.5), […], 3 mM MgCl2, 20 mM KCl, 5 mM DTT, 0.2% octyl-B-glucoside, 1% DMSO, […], 10 ng FPTase, and various concentrations of FPTase inhibitors. 4. Incubate for 30-90 min at […] 5. Stop reactions with TCA/SDS (6%/2%), hold at 4° C. for 45-60 min. 6. Filter by manifold or 96 well plate, wash filter 3-5× with TCA (6%). 7. Add scintillant to filters, measure ^3H-FPP incorporation into Ras protein.
(§3) (cpm from precipitated Ras with test compounds)−(background cpm)×100=% inhibition.
(§4) (cpm from precipitated Ras without test compounds)−(background cpm)

In experiment [2] the target is FPTase (H-Ras substrate) (UniProt P29702+P49355). The experiment can be described thus: in vitro FTase Inhibition Assay, H-Ras as substrate for farnesylation. It counts as biochemical. As to conditions: H-Ras used as substrate for farnesylation. The protocol:
as §1, §2, §3, §4

Take `COc1ccc(S(=O)(=O)C2(CCCC#Cc3cc(NC(=O)Oc4ccc(Cl)cc4)ccc3C)SC(=O)NC2=O)cc1` (centres unmarked) [Example 177, (3-{5-[5-(4-Methoxybenzenesulfonyl)-2,4-dioxothiazolidin-5-yl]pent-1-ynyl}-4-methylphenyl)carbamic Acid 4-Chloro-phenyl Ester]: the IC50 in experiment [1] lay within 0.086 to 0.1 µM; in experiment [2], 0.011 to 0.032 µM.
`O=C1NC(=O)C(CCCC#Cc2ccc(Cl)cc2)(S(=O)(=O)c2ccc3ccccc3c2)S1` (centres unmarked) [Example 107, 5-[5-(4-Chlorophenyl)pent-4-ynyl]-5-(naphthalene-2-sulfonyl)-thiazolidine-2,4-dione]: the IC50 in experiment [1] lay in the range of 0.62 to 0.7 µM; in experiment [2], 0.18 to 0.2 µM.
Turning to `COc1ccc(S(=O)(=O)C2(CCCC#Cc3ccc(Cl)cc3Cl)SC(=O)NC2=O)cc1` (centres unmarked) [Example 117, 5-[5-(2,4-Dichlorophenyl)pent-4-ynyl]-5-(4-methoxybenzenesulfonyl)-thiazolidine-2,4-dione], the IC50 in experiment [1] fell in the range of 0.51 to 1 µM; in experiment [2], 0.02 to 0.03 µM.
Turning to `COc1ccc(S(=O)(=O)C2(CC#Cc3ccc(-c4ccccc4)cc3)SC(=O)NC2=O)cc1` (centres unmarked) [Example 171, 5-(3-Biphenyl-4-yl-prop-2-ynyl)-5-(4-methoxybenzenesulfonyl)-thiazolidine-2,4-dione], the figures for the IC50 in experiment [1] and in experiment [2] were 3.3 µM and 0.2 µM, respectively.
On to `Cc1ccc(C#CCCCC2(S(=O)(=O)c3ccc(I)cc3)SC(=O)NC2=O)c(C)c1` (centres unmarked) [Example 137, 5-[5-(2,4-Dimethylphenyl)pent-4-ynyl]-5-(4-iodobenzenesulfonyl)-thiazolidine-2,4-dione], for which the IC50 in experiment [1] fell in the range of 0.037 to 0.8 µM; in experiment [2], 0.021 to 0.4 µM.
Consider `Cc1ccc(Cl)cc1C#CCCCC1(S(=O)(=O)c2ccc(OC(F)(F)F)cc2)SC(=O)NC1=O` (centres unmarked) [Example 139, 5-[5-(5-Chloro-2-methylphenyl)pent-4-ynyl]-5-(4-trifluoromethoxybenzene-sulfonyl)thiazolidine-2,4-dione], for which the IC50 in experiment [1] lay within 0.6 to 5 µM; in experiment [2], 0.14 to 0.17 µM.
Take `Cc1ccc(C)c(C#CCCCC2(S(=O)(=O)c3ccc(I)cc3)SC(=O)NC2=O)c1` (centres unmarked) [Example 134, 5-[5-(2,5-Dimethylphenyl)pent-4-ynyl]-5-(4-iodobenzenesulfonyl)-thiazolidine-2,4-dione]: the values for the IC50 in experiment [1] and in experiment [2] were 0.43 to 0.68 µM and 0.014 to 0.85 µM, respectively.
Consider `O=C1NC(=O)C(CCCC#Cc2ccc(Cl)cc2)(S(=O)(=O)c2ccc(I)cc2)S1` (centres unmarked) [Example 104, 5-[5-(4-Chlorophenyl)pent-4-ynyl]-5-(4-iodobenzenesulfonyl)-thiazolidine-2,4-dione], for which the IC50 in experiment [1] lay within 0.23 to 0.9 µM; in experiment [2], 0.03 to 0.054 µM.
For the compound `O=C1NC(=O)C(CCCC#Cc2ccc(Cl)cc2)(S(=O)(=O)c2ccc([N+](=O)[O-])cc2)S1` (centres unmarked) [Example 110, 5-[5-(4-Chlorophenyl)pent-4-ynyl]-5-(4-nitrobenzenesulfonyl)-thiazolidine-2,4-dione], the figures for the IC50 in experiment [1] and in experiment [2] were 7 µM and 0.4 µM, respectively.
As to `COc1ccc(S(=O)(=O)C2(CCCC#Cc3ccc([N+](=O)[O-])cc3C)SC(=O)NC2=O)cc1` (centres unmarked) [Example 130, 5-(4-Methoxybenzenesulfonyl)-5-[5-(2-methyl-4-nitrophenyl)-pent-4-ynyl]-thiazolidine-2,4-dione], the IC50 in experiment [1] was 0.32 to 1 µM; in experiment [2] it was 0.023 to 0.056 µM.
As to `COc1ccc(S(=O)(=O)C2(CCCC#Cc3cc(F)cc([N+](=O)[O-])c3)SC(=O)NC2=O)cc1` (centres unmarked) [Example 133, 5-[5-(3-Fluoro-5-nitrophenyl)pent-4-ynyl]-5-(4-methoxybenzene-sulfonyl)-thiazolidine-2,4-dione], the IC50 in experiment [1] lay in the range of 0.054 to 1 µM; in experiment [2], 0.04 to 0.2 µM.
With `COc1ccc(S(=O)(=O)C2(CCCC#Cc3ccc(NC(=O)OC(C)(C)C)cc3C(F)(F)F)SC(=O)NC2=O)cc1` (centres unmarked) [Example 151, (4-{5-[5-(4-Methoxybenzenesulfonyl)-2,4-dioxothiazolidin-5-yl]pent-1-ynyl}-3-trifluoromethylphenyl)-carbamic Acid tert-Butyl Ester], the values for the IC50 in experiment [1] and in experiment [2] were 0.21 to 1 µM and 0.53 to 0.7 µM, respectively.
The like results for `COc1ccc(S(=O)(=O)C2(CCCC#Cc3cccc(Cl)c3)SC(=O)NC2=O)cc1` (centres unmarked) [Example 102, 5-[5-(3-Chlorophenyl)pent-4-ynyl]-5-(4-methoxybenzenesulfonyl)-thiazolidine-2,4-dione] were, in that order, 1.4 µM and 0.03 to 0.032 µM.
The like results for `Cc1ccc(C(=O)NC(C)(C)C)cc1C#CCCCC1(S(=O)(=O)c2ccc(I)cc2)SC(=O)NC1=O` (centres unmarked) [Example 147, N-tert-Butyl-3-{5-[5-(4-iodo-benzenesulfonyl)-2,4-dioxothiazol-idin-5-yl]-pent-1-ynyl}-4-methylbenzamide] were, in that order, 0.08 to 0.1 µM and 0.0068 to 0.21 µM.
Turning to `Cc1cc(Br)ccc1C#CCCCC1(S(=O)(=O)c2ccc(I)cc2)SC(=O)NC1=O` (centres unmarked) [Example 144, 5-[5-(4-Bromo-2-methylphenyl)pent-4-ynyl]-5-(4-iodobenzenesulfonyl)-thiazolidine-2,4-dione], the results for the IC50 in experiment [1] and in experiment [2] were 0.32 to 0.55 µM and 0.04 to 0.041 µM, respectively.
In the case of `COc1ccc(S(=O)(=O)C2(CCCC#Cc3cccc([N+](=O)[O-])c3)SC(=O)NC2=O)cc1` (centres unmarked) [Example 118, 5-(4-Methoxybenzenesulfonyl)-5-[5-(3-nitrophenyl)pent-4-ynyl]-thiazolidine-2,4-dione], the values for the IC50 in experiment [1] and in experiment [2] were 1.9 µM and 0.07 µM, respectively.
As to `COc1ccc(S(=O)(=O)C2(CCCC#Cc3ccc([N+](=O)[O-])cc3)SC(=O)NC2=O)cc1` (centres unmarked) [Example 121, 5-(4-Methoxybenzenesulfonyl)-5-[5-(4-nitrophenyl)pent-4-ynyl]-thiazolidine-2,4-dione], the IC50 in experiment [1] turned out to be 1.6 µM; in experiment [2], 0.12 µM.
With `COc1ccc(S(=O)(=O)C2(CCCC#Cc3cc(NC(=O)OCC(C)(C)C)ccc3C)SC(=O)N(C(=O)OCC(C)(C)C)C2=O)cc1` (centres unmarked) [Example 230, Neopentyl 5-[(4-methoxyphenyl)sulfonyl]-5-[5-(2-methyl-5-{[(neopentyloxy)carbonyl]-amino}phenyl)pent-4-ynyl]-2,4-dioxo-1,3-thiazolidine-3-carboxylate], the IC50 in experiment [1] was 0.02 to 0.5 µM; in experiment [2], 0.003 to 0.0035 µM.
On to `Cc1ccc([N+](=O)[O-])cc1C#CCCCC1(S(=O)(=O)c2ccc(Oc3ccccc3)cc2)SC(=O)NC1=O` (centres unmarked) [Example 124], for which the IC50 was in the range of 0.91 to 1.3 µM in experiment [1] and 0.052 to 0.08 µM in experiment [2].
On to `CCCCOc1ccc(S(=O)(=O)C2(CCCC#Cc3ccc(Cl)cc3)SC(=O)NC2=O)cc1` (centres unmarked) [Example 112, 5-(4-Butoxybenzenesulfonyl)-5-[5-(4-chlorophenyl)-pent-4-ynyl]-thiazolidine-2,4-dione], for which the IC50 was in the range of 1.4 to 1.5 µM in experiment [1] and 0.59 to 0.6 µM in experiment [2].
The like results for `COc1ccc(S(=O)(=O)C2(CCCC#Cc3ccc(C#N)cc3)SC(=O)NC2=O)cc1` (centres unmarked) [Example 158, 4-{5-[5-(4-Methoxybenzenesulfonyl)-2,4-dioxo-thiazolidin-5-yl]pent-1-ynyl}benzonitrile] were, in that order, 3.8 µM and 0.15 µM.
Regarding `COc1ccc(S(=O)(=O)C2(CCCC#Cc3ccc([N+](=O)[O-])cc3OC)SC(=O)NC2=O)cc1` (centres unmarked) [Example 132, 5-(4-Methoxybenzenesulfonyl)-5-[5-(2-methoxy-4-nitrophenyl)pent-4-ynyl]-thiazolidine-2,4-dione], the IC50 in experiment [1] fell in the range of 0.21 to 1 µM; in experiment [2], 0.041 to 0.073 µM.
On to `COc1ccc(S(=O)(=O)C2(CCCC#Cc3ccccc3Cl)SC(=O)NC2=O)cc1` (centres unmarked) [Example 101, 5-[5-(2-Chlorophenyl)pent-4-ynyl]-5-(4-methoxybenzenesulfonyl)-thiazolidine-2,4-dione], for which the IC50 in experiment [1] lay in the range of 0.11 to 1 µM; in experiment [2], 0.01 to 0.03 µM.
On to `COc1ccc(S(=O)(=O)C2(CCCC#Cc3ccc(OC(F)(F)F)cc3)SC(=O)NC2=O)cc1` (centres unmarked) [Example 154, 5-(4-Methoxybenzenesulfonyl)-5-[5-(4-trifluoromethoxyphenyl)pent-4-ynyl]-thiazolidine-2,4-dione], for which the IC50 is 1 to 2.5 µM in experiment [1] and 0.07 to 0.15 µM in experiment [2].
The like results for `COc1ccc(S(=O)(=O)C2(CCCC#Cc3cccs3)SC(=O)NC2=O)cc1` (centres unmarked) [Example 166, 5-(4-Methoxybenzenesulfonyl)-5-(5-thiophen-2-yl-pent-4-ynyl)-thiazolidine-2,4-dione] were, in that order, 5.3 µM and 0.15 µM.
Consider `COc1ccc(S(=O)(=O)C2(CCCC#Cc3cc(NC(=O)OC(C)C)ccc3C)SC(=O)N(C(=O)OC(C)C)C2=O)cc1` (centres unmarked) [Example 229, Isopropyl 5-(5-{5-[(isopropoxycarbonyl)-amino]-2-methylphenyl}pent-4-ynyl)-5-[(4-methoxyphenyl)sulfonyl]-2,4-dioxo-1,3-thiazolidine-3-carboxylate], for which the IC50 in experiment [1] fell in the range of 0.1 to 0.7 µM; in experiment [2], 0.006 to 0.02 µM.
The like results for `COc1ccc(S(=O)(=O)C2(CCCC#Cc3ccc(NC(=O)OC(C)(C)C)cc3C)SC(=O)NC2=O)cc1` (centres unmarked) [Example 149, (4-{5-[5-(4-Methoxybenzenesulfonyl)-2,4-dioxo-thiazolidin-5-yl]pent-1-ynyl}-3-methylphenyl)carbamic Acid tert-Butyl Ester] were, in that order, 1 to 4.9 µM and 0.45 to 0.5 µM.
Take `COc1ccc(S(=O)(=O)C2(CCCC#Cc3cccc(N)c3)SC(=O)NC2=O)cc1` (centres unmarked) [Example 220, 5-[5-(3-Aminophenyl)pent-4-ynyl]-5-(4-methoxybenzenesulfonyl)-thiazolidine-2,4-dione]: the IC50 turned out to be 3 µM in experiment [1] and 0.09 µM in experiment [2].

One may read the IC50 as the concentration that inhibits the measured activity by half. Read a high IC50 as a need for much substance.
